Common to all, as to test: isoTOP-ABPP mapping of AEA-DA-modified peptides in Neuro2a cells
What all share (type): cell-based

In experiment [1] the target is T1, AEA-DA-modified peptides in Neuro2a cells (Mus musculus, UniProt Q91YE6).
T1 construct: endogenous in cells; host or cells: Neuro2a
The note with it: AEA-DA-modified peptide IPO9 Q91YE6 777-788, SEQ ID NO 54; probe 100 μM, 12 replicates.

For experiment [2], the target named is T2, AEA-DA-modified peptides in Neuro2a cells (Mus musculus, UniProt P47802).
T2 construct: endogenous in cells; host or cells: Neuro2a
The note with it: AEA-DA-modified peptide MTX1 P47802 89-104, SEQ ID NO 63; probe 100 μM, 12 replicates.

Experiment [3] addresses T3, AEA-DA-modified peptides in Neuro2a cells (Mus musculus, UniProt P35505).
T3 construct: endogenous in cells; host or cells: Neuro2a
The note with it: AEA-DA-modified peptide FAH P35505 238-254, SEQ ID NO 40; probe 100 μM, 12 replicates.

In experiment [4] the target is T4, AEA-DA-modified peptides in Neuro2a cells (Mus musculus, UniProt Q8R2Y8).
T4 construct: endogenous in cells; host or cells: Neuro2a
The note with it: AEA-DA-modified peptide PTRH2 Q8R2Y8 35-69, SEQ ID NO 93; probe 100 μM, 12 replicates.

Experiment [5] addresses T5, AEA-DA-modified peptides in Neuro2a cells (Mus musculus, UniProt P61759).
T5 construct: endogenous in cells; host or cells: Neuro2a
The note with it: AEA-DA-modified peptide VBP1 P61759 153-178, SEQ ID NO 119; probe 100 μM, 12 replicates.

The target in experiment [6] is T6, AEA-DA-modified peptides in Neuro2a cells (Mus musculus, UniProt P61205).
T6 construct: endogenous in cells; host or cells: Neuro2a
The note with it: AEA-DA-modified peptide ARF3 P61205 39-60, SEQ ID NO 11; probe 100 μM, 12 replicates.

Experiment [7] addresses T7, AEA-DA-modified peptides in Neuro2a cells (Mus musculus, UniProt Q9CQV8).
T7 construct: endogenous in cells; host or cells: Neuro2a
The note with it: AEA-DA-modified peptide YWHAB Q9CQV8 196-225, SEQ ID NO 120; probe 100 μM, 12 replicates.

Experiment [8] deals with T8, AEA-DA-modified peptides in Neuro2a cells (Mus musculus, UniProt P42125).
T8 construct: endogenous in cells; host or cells: Neuro2a
The note with it: AEA-DA-modified peptide ECI1 P42125 276-284, SEQ ID NO 34; probe 100 μM, 12 replicates.

For experiment [9], the target named is T9, AEA-DA-modified peptides in Neuro2a cells (Mus musculus, UniProt Q9D379).
T9 construct: endogenous in cells; host or cells: Neuro2a
The note with it: AEA-DA-modified peptide EPHX1 Q9D379 296-329, SEQ ID NO 39; probe 100 μM, 12 replicates.

The target in experiment [10] is T10, AEA-DA-modified peptides in Neuro2a cells (Mus musculus, UniProt Q99LR1).
T10 construct: endogenous in cells; host or cells: Neuro2a
The note with it: AEA-DA-modified peptide ABHD12 Q99LR1 263-284, SEQ ID NO 1; probe 100 μM, 12 replicates.

The target of experiment [11] is T11, AEA-DA-modified peptides in Neuro2a cells (Mus musculus, UniProt Q9JKW0).
T11 construct: endogenous in cells; host or cells: Neuro2a
The note with it: AEA-DA-modified peptide ARL6IP1 Q9JKW0 8-36, SEQ ID NO 15; probe 100 μM, 12 replicates.

Experiment [12] has as its target T12, AEA-DA-modified peptides in Neuro2a cells (Mus musculus, UniProt P81117).
T12 construct: endogenous in cells; host or cells: Neuro2a
The note with it: AEA-DA-modified peptide NUCB2 P81117 60-73, SEQ ID NO 72; probe 100 μM, 12 replicates.

T4 sequence (Q8R2Y8 whole entry): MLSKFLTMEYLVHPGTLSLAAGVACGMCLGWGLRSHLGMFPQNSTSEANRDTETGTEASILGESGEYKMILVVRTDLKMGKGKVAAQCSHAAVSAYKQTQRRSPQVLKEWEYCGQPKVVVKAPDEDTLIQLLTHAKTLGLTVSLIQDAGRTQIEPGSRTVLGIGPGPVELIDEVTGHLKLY
T3 sequence (P35505 whole entry): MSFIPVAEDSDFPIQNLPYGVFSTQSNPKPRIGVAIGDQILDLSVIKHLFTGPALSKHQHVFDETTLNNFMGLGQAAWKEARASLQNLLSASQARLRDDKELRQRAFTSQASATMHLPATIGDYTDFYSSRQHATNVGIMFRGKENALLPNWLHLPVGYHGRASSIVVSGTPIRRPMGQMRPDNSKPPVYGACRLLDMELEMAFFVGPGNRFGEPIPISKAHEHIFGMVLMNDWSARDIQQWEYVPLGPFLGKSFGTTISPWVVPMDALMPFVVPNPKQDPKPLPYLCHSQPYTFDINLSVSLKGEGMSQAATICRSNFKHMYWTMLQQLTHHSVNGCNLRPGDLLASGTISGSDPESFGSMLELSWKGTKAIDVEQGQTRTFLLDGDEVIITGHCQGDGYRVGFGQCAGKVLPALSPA
T7 sequence (Q9CQV8 whole entry): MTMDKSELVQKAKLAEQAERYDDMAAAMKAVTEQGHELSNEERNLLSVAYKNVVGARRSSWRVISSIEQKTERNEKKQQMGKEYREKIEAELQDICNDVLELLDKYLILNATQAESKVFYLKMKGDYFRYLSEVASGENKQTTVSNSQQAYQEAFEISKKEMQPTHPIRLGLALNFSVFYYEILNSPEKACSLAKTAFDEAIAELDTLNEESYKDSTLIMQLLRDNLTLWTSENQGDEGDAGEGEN
T9 sequence (Q9D379 whole entry): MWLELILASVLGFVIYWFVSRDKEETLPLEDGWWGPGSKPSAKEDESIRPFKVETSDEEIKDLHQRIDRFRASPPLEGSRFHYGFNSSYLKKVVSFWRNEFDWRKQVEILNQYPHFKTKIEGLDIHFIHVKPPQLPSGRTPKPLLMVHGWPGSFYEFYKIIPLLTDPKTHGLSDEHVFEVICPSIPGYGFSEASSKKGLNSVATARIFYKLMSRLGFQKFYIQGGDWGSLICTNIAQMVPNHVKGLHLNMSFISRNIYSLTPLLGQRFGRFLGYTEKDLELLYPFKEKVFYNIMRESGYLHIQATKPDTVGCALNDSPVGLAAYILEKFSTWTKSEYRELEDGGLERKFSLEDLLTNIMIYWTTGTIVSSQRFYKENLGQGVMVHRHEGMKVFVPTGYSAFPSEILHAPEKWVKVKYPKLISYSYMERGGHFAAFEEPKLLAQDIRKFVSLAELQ
T2 sequence (P47802 whole entry): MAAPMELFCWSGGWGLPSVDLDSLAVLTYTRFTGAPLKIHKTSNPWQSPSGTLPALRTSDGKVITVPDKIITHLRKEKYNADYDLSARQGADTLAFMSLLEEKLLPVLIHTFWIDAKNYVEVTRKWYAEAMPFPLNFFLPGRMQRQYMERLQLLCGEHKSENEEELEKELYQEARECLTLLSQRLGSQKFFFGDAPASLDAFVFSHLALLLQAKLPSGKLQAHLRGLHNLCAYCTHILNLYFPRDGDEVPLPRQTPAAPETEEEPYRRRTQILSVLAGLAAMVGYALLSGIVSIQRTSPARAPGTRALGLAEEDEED
T6 sequence (P61205 whole entry): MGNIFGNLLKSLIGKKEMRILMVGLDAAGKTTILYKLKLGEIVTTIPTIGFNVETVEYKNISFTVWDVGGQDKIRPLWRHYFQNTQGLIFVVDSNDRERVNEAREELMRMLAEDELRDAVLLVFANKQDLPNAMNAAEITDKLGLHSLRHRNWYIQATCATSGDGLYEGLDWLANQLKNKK
T12 sequence (P81117 25-420): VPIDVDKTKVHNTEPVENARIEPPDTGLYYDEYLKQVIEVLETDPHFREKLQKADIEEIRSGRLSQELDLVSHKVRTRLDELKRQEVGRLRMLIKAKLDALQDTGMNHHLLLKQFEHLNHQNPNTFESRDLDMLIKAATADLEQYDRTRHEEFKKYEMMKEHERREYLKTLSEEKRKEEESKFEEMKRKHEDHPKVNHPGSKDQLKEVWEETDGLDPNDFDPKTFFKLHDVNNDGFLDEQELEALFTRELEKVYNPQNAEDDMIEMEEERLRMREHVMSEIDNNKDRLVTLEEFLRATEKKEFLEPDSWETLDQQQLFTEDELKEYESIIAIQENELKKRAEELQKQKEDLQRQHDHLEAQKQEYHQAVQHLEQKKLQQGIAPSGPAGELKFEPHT
T11 sequence (Q9JKW0 whole entry): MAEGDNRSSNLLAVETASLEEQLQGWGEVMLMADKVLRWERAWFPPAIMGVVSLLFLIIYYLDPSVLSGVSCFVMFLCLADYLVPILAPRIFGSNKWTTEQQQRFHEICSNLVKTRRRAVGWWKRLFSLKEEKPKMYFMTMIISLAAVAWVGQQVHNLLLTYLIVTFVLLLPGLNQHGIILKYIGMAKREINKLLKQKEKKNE
T10 sequence (Q99LR1 whole entry): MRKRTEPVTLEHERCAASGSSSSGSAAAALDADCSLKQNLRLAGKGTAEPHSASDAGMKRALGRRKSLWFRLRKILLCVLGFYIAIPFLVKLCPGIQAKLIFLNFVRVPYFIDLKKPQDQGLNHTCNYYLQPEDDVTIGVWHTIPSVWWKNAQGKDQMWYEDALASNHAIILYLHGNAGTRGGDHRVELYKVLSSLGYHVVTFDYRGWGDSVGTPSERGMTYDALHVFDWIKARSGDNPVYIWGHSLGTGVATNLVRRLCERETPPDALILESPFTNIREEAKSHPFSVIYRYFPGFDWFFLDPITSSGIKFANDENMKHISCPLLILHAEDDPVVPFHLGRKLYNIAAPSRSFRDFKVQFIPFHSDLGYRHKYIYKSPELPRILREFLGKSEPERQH
T8 sequence (P42125 29-289): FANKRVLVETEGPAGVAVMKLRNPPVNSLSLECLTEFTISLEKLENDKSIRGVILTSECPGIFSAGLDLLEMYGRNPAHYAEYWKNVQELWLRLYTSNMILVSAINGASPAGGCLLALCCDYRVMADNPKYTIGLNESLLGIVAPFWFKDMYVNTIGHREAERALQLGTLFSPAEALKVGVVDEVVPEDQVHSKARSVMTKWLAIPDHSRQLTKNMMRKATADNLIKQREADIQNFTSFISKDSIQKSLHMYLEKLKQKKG
T5 sequence (P61759 whole entry): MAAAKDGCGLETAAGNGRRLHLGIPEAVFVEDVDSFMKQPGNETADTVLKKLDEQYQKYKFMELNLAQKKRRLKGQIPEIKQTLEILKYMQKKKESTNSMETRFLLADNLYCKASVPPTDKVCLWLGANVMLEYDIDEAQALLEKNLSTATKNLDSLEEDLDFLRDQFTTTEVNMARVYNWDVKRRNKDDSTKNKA
T1 sequence (Q91YE6 whole entry): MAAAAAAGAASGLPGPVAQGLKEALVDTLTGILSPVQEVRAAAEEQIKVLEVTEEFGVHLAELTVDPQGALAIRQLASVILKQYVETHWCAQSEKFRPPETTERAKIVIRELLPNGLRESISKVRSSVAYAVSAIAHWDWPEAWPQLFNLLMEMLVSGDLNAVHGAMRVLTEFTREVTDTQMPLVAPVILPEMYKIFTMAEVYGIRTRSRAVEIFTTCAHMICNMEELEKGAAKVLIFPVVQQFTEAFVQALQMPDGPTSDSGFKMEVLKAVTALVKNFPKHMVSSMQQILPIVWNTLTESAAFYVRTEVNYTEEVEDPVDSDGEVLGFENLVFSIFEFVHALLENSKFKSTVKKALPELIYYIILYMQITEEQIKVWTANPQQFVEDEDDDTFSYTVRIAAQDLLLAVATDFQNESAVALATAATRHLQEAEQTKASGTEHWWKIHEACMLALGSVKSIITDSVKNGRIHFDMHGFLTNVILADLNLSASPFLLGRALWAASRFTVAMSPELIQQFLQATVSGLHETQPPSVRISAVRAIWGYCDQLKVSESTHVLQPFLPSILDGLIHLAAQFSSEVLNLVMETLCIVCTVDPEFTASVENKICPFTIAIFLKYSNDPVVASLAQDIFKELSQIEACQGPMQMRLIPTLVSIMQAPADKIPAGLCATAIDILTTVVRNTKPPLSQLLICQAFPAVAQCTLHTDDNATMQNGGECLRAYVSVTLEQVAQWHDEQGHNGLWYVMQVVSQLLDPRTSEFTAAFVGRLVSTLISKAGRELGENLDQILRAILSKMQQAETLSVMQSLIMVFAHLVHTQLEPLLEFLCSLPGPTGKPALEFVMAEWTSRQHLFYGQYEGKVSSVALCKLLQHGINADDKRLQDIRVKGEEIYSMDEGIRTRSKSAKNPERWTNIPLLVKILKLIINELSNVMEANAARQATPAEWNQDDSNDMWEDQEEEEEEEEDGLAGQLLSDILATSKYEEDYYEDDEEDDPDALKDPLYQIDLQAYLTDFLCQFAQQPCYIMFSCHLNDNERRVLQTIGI

With `C#CCCCC1(CC/C=C\C/C=C\C/C=C\CCCC(=O)NCCO)N=N1` [AEA-DA, (5Z,8Z,11Z)-N-(2-hydroxyethyl)-14-(3-(pent-4-yn-1-yl)-3H-diazirin-3-yl)tetradeca-5,8,11-trienamide], the Times observed was 3 in experiment [1]; 2 in experiment [2]; 8 in experiment [3]; 2 in [4]; 2 in [5]; 9 in [6]. The Times observed in experiment [7] was 8; in experiment [8], 2; in experiment [9] it was 8; in experiment [10] it was 2; in experiment [11], 2; in experiment [12] it was 4.

The record behind these values is patent US10168342B2, “Lipid probes and uses thereof” (THE SCRIPPS RESEARCH INSTITUTE, priority 2015, dated 2019).
